From patent publication US20190256819A1, “PROCESS FOR IMPROVING THE DISSOLUTION BEHAVIOUR OF COMPONENTS IN AQUEOUS SOLUTIONS” (Merck Patent GmbH, priority 2016, published 2019)

Assay: Measurement of dissolution enthalpy by solution calorimetry (TAM IV Microcalorimeter), relative temperature as a function of time
Type: physicochemical
Conditions: 250 mg sample in 100 mL water, 25° C., stirring at 500 rpm, ampoule broken; FIGS. 1-4
Experimental: The TAM IV Microcalorimeter was used to detect temperature changes of solutions with an accuracy of 0.001 K, which evolves from the dissolution enthalpy of the substances being tested.
Different formulations of amino acids are placed in an ampoule, surrounded by aqueous solvent. After the ampoule has been ruptured, the temperature change is analyzed.
Experimental Setup: • 250 mg of each sample were filled into a 1 mL crushing ampoule at ambient conditions without any pre-treatment. • The ampoules were closed with a silicone stopper and wax and inserted into the stirrer of the solution calorimeter and immersed into 100 mL water. • The system was then equilibrated at 25° C. while stirring at 500 rpm before the ampoule was broken. • Calibrations with a heat pulse of 2.5 J at a power of 250 mW were performed before and after the break. • For data evaluation, the slope of the baseline before breaking the sample was set to zero by differentiation of the curve, shift to zero and re-integration.
For spray dried multicomponent amino acids the enthalpy of solution measurement have been carried out on a special ampule calorimeter equipped with an isothermal shell. In the course of the calorimetry measurement, the stability of the temperature-control system was maintained constant to within 10^−4K. All experiments were performed three times and were reproducible within 5%.

| SMILES | Relative temperature as a function of time on dissolution (enthalpy of solution) |
| --- | --- |
| O=C(O)[C@@H]1CCCN1 [L-proline] | strong increase in the temperature is observed followed by a continous decrease |
| CC(C)C[C@H](N)C(=O)O [L-leucine] | steady decrease in the temperature |
